Test results published in US9242012B2, “Methods for killing PSMA-expressing, taxane-resistant cancer cells” (PSMA Development Company, LLC, priority 2008, dated 2016).
Where a SMILES comes first, the peptide text is derived from it. [ ]: non-standard residue; d: D form. The star is where a group is joined. Dolaproine = CO[C@@H]([C@@H]1CCCN1)[C@@H](C)C(=O)O; Dil = CC[C@H](C)[C@H](NC)[C@@H](CC(=O)O)OC; X1 = C[C@@H](N*)[C@@H](O)c1ccccc1; NMeV = CN[C@H](C(=O)O)C(C)C

What was measured:
[1] = Phase 1 dose-escalation study of PSMA ADC: pharmacokinetics (ELISA, LC/MS/MS); type: in vivo, human
Source text: An open-label, dose-escalation phase 1 study of PSMA ADC (comprising MMAE) in patients with taxane refractory metastatic prostate cancer (metCRPC) was initiated. The objectives of the study were to (1) determine a maximum tolerated dose (MTD) for PSMA ADC administered once every 3 weeks; (2) assess the safety, tolerability, pharmacokinetics (PK) and pharmacodynamics (PD) of PSMA ADC across the dose-escalation range; (3) assess immunogenicity; and (4) assess antitumor activity. PSMA ADC in saline was administered by IV infusion Q3 W for up to 4 cycles. Subjects received either 0.4 mg/kg, 0.7 mg/kg, 1.1 mg/kg, or 1.8 mg/kg or will receive 2.0 mg/kg (at weeks 1, 4, 7 and 10).
Adverse events, PK, PSA, circulating tumor cells, clinical disease progression and immunogenic response to PSMA ADC continued to be assessed (FIGS. 19-21). Serum concentrations of PSMA ADC and total antibody were measured by an enzyme-linked immunosorbent assay (ELISA) method, and free MMAE was measured by liquid chromatography/mass spectrometry/mass spectrometry (LC/MS/MS) method. Individual patients report bone pain reduction as described below.

[2] = tested on: C4-2 cells; assay: Single C4-2 xenograft mouse given docetaxel, then switched to PSMA ADC after relapse; type: in vivo, nude mouse
Method: The in vivo therapeutic efficacy of PSMA ADC in a subcutaneous xenograft model of human prostate cancer was assessed. […] C4-2 is an androgen-independent human prostate cancer cell line. At day 11, the tumor size of each mouse was measured, by length and width in millimeters, using a caliper (Mitutoyo, Aurora, Ill.). The tumor volume was calculated using the following formula: Volume(mm^3)=[(Length)×(Width)^2]/2
It was given 12 doses of docetaxel, IP, at 12 mg/kg weekly. As shown in FIG. 3 and Table 2, the animal initially responded to the docetaxel treatment, the tumor volume was reduced to ˜300 mm^3 at day 60, but then it progressed to ˜800 mm^3 at day 100. The treatment of docetaxel was stopped, and PSMA ADC was given IV at 6 mg/kg for an additional 12 doses, weekly. […] PSMA ADC can treat tumors that fail docetaxel treatment.

[3] = tested on: C4-2 cells; assay: C4-2 xenograft, PSMA ADC after docetaxel treatment failure (Example 3); type: in vivo, athymic nude mice
Method: An experiment (FIG. 10) was designed to evaluate PSMA ADC effectiveness after docetaxel treatment failure. […] At day 14, animals having a tumor volume between 100-200 mm^3 were randomized (randomization #1) into two treatment arms: (1) vehicle control (PBS buffer, n=10); (2) docetaxel at 2 mg/kg/IV weekly (n=50) according to tumor volume. The mean tumor volume was 138.0 and 138.1 mm^3 for the vehicle control and docetaxel treatment groups, respectively, at randomization.
All animals then received intravenous injections of PBS or docetaxel (Sigma, St. Louis, Mo.) at 2 mg/kg via tail vein in a volume of 0.1 mL. Tumor sizes were measured twice per week after tumor implantation, and the average tumor volume for the two groups before the second randomization was initiated were plotted (FIG. 11).
Animals were randomized into these two treatment subgroups continuously over the period of 28 days to 70 days post tumor implantation. By the end of day 70, there were 28 mice whose tumor volume had exceeded 400 mm^3, with 14 mice randomized into the PSMA ADC treatment subgroup (mean tumor volume of 695 mm^3 and 14 mice randomized into the continued docetaxel treatment subgroup (mean tumor volume of 642 mm^3 with a p-value of 0.28 (student t-test)).
The effect of PSMA ADC treatment on tumor growth after docetaxel failure was assessed by comparing tumor reduction after the second randomization. […]

[4] = tested on: C4-2 cells
Method: Male athymic nude mice, 6-8 weeks old, obtained from Charles River Laboratories, Inc., were implanted with Matrigel subcutaneously into the right flank of each mouse with 5 million C4-2 cells (androgen-independent human prostate cancer cell line). At day 14, tumor size was measured by length and width in mm (millimeter). The volume was calculated using the formula: volume (mm^3)=[(length)×(width)^2]/2. […] Animals were dosed weekly through the tail vein.
When the tumor volume of an animal in the docetaxel treatment group exceeded 400 mm^3, this animal was randomized, at a 1:1 ratio, into one of the two treatment subgroups: one group continued to receive docetaxel at 2 mg/kg weekly (n=18), and the second group was switched to PSMA ADC treatment at 6 mg/kg/IV weekly (n=18). Mice whose tumors durably responded to docetaxel (≦400 mm^3) continued to receive docetaxel at 2 mg/kg/IV weekly. Treatment effects were assessed by measuring tumor volume and overall survival. Animal body weight was also measured. Animals with tumor size ≧2000 mm^3 were sacrificed.

[5] = tested on: hormone-refractory prostate cancer; conditions: cited from earlier work

Structure (SMILES) | exposure to free MMAE versus dose ([1]; after IV PSMA ADC 0.4-1.8 mg/kg) | exposure to free MMAE relative to PSMA ADC ([1]; after IV PSMA ADC, serum, LC/MS/MS) [%] | tumor volume ([2]; day 60, docetaxel IP 12 mg/kg weekly, start ~500 mm^3 at day 21) [mm^3] | tumor volume ([2]; day 100, progressed on docetaxel IP 12 mg/kg weekly) [mm^3] | tumor volume course after second randomization (docetaxel failure, >400 mm^3) ([3]; PSMA ADC 6 mg/kg IV weekly or continued docetaxel 2 mg/kg) | tumor growth compared to vehicle control ([3]; docetaxel 2 mg/kg IV weekly, n=50, before second randomization, by day 21 p=0.025) | tumor size of individual animals after second randomization ([4]; PSMA ADC (panel A) or continued docetaxel (panel B)) | average body weight change post second randomization ([4]; PSMA ADC versus continued docetaxel, p<0.001) | median survival post second randomization ([4]; continued docetaxel 2 mg/kg weekly, n=18) [days] | animals sacrificed due to large tumors (>2,000 mm^3) ([4]; continued docetaxel treatment group, day 157 post second randomization) | increase in survival ([5]; docetaxel (Taxotere) in combination with prednisone, advanced prostate cancer) | survival benefit ([5]; docetaxel in combination with prednisone) [month]
CC[C@H](C)[C@@H]([C@@H](CC(=O)N1CCC[C@H]1[C@H](OC)[C@@H](C)C(=O)N[C@H](C)[C@@H](O)c1ccccc1)OC)N(C)C(=O)[C@@H](NC(=O)[C@@H](NC)C(C)C)C(C)C [MMAE, monomethylauristatin norephedrine] (H-[NMeV]V[Dil][Dolaproine]-X1) | dose proportional | < 0.1 |  |  |  |  |  |  |  |  |  | 
CC(=O)O[C@@]12CO[C@@H]1C[C@H](O)[C@@]1(C)C(=O)[C@H](O)C3=C(C)[C@@H](OC(=O)[C@H](O)[C@@H](NC(=O)OC(C)(C)C)c4ccccc4)C[C@@](O)([C@@H](OC(=O)c4ccccc4)[C@H]21)C3(C)C [docetaxel] |  |  | ~300 | ~800 | grew continuously | reduced tumor growth compared to control | tumors continued to progress except in one animal | lost weight | 45 | 16 of 18 | 2-3 months | 2.4
